Where “and” joins values, the source holds several entries; their conditions need not be identical. Equal values may be shown once.
Legend:
[1] = system: COLO699N lung cancer cell line; assay: Sulforhodamine B viability assay, COLO699N; assay type: cell-based, human; set-up: key to SRB Average: absorbance (optical density) at 570 nm, second wavelength subtracted; settings: for Average SRB 24 h / Average SRB 48 h / Average SRB 72 h: COLO699N Run 1; for ABSORBANCE: COLO699N, 0.1 μg/mL cisplatin
From the text: (§1) Three different viability assays were chosen to complement each other and yielded results dependent on concentration and cell line: the Methyl Tetrazolium dye assay, the Sulforhodamine B fluorescent dye assay, and the Crystal Violet dye assay.
(§2) The Sulforhodamine B and Crystal Violet assays provide information about protein and were used to complement the Methyl-Tetrazolium dye assay. […] It is used for the quantification of cellular proteins of cultured cells. The assay using Crystal Violet, a dye that binds electrostatically to proteins and stains DNA, provides a reliable, simple assay for measuring viability of cells.
(§3) The Methyl Tetrazolium, Sulforhodamine B, and Crystal Violet assays were used to assess cell viabilities. The incubation times were 24 hours, 48 hours, and 72 hours. The Nerium oleander extract Anvirzel™ (a hot water extract of oleander obtained from Salud Integral, Honduras) was tested in concentrations ranging from 0.01 ng/mL to 10 ng/mL.
(§4) Cells were detached by trypsinization (Trypsin-0.25% EDTA, Invitrogen, 25200-072) during the logarithmic phase of culture growth and plated in 96-well plates (18.000 cells/well) (Corning, Costar 359) in a final volume of 200 μl of medium per well. […] The absorbance was measured after 24 hours, 48 hours, and 72 hours of incubation.
(§5) For the Sulforhodamine B assay, 96-well plates were fixed by 10% trichloroacetic acid (Fluka, 91228) and were incubated at 4° C. for 1 hour. Afterwards, plates were rinsed with water and cells were stained with 0.4% Sulforhodamine B (Sigma, 341738), dissolved in 1% acetic acid (Carlo Ebra, 401422) for 15 minutes at room temperature (RT). The unbound stain was washed twice with 1% acetic acid. Finally, 10 mM Tris Buffer pH 10.5 (Sigma, T6791) was added to dissolve the dye.
(§6) The optical density of each plate was measured on a μQuant spectrophotometer and the data were analyzed with Gen5 software (μQuant Biomolecular Spectrophotometer MQX200 and Gen5™ Microplate Data Collection & Analysis software, BioTek® Instruments. Inc, April 2008). Absorbance was measured at 570 nm for all assays and a second wavelength was measured in order to subtract noise. For the Methyl-Tetrazolium assay this second wavelength was 630 nm and for the Sulforhodamine B and Crystal Violet assays it was 690 nm.

[2] = system: 22Rv1 (human prostate cancer); assay: Sulforhodamine B (SRB) viability assay, 22Rv1; assay type: cell-based
From the text: as §1, §2, §3, §4, §5, §6

[3] = system: MDA-MB 231 (human breast cancer); assay: Methyl-Tetrazolium viability assay, MDA-MB 231; assay type: cell-based; settings: for MTT 24 h / MTT 48 h / MTT 72 h: Run 3 average
From the text: as §1
The Methyl-Tetrazolium dye assay measures the activity of enzymes in mitochondria. The dye precursor is taken up by cells, where it undergoes reduction to the purple formazan. It measures only the mitochondrial activity and, thus, it is not always a reliable indication of whether the cells themselves are alive or dead, since even a recently dead cell has […] enzyme activity in mitochondria. Intracellular glucose concentration, pH, and time before assay all affect the measurements.
as §3, §4
For the Methyl-Tetrazolium assay, the dye (Sigma, M2128; 5 mg/mL, diluted in phosphate-buffered saline) was added to each well and plates were incubated for 3 hours at 37° C. After the end of the incubation period, the medium was discarded and the cells were rinsed with phosphate-buffered saline. Finally, the formazan crystals were dissolved in dimethylsulphoxide (Sigma, D4540).
as §6

Compound: N.N.[Cl][Pt][Cl] [cisplatin]
- Average SRB 24 h ([1]; 0.1 μg/ml CDDP): 1.552
- Average SRB 48 h ([1]; 0.1 μg/ml CDDP, 48 h): 1.317
- Average SRB 72 h ([1]; 0.1 μg/ml CDDP, 72 h): 1.658
- Average SRB 24 h ([1]; 1 μg/ml CDDP): 1.526
- Average SRB 48 h ([1]; 1 μg/ml CDDP, 48 h): 1.388
- Average SRB 72 h ([1]; 1 μg/ml CDDP, 72 h): 1.152
- Average SRB 24 h ([1]; 10 μg/ml CDDP): 1.384
- Average SRB 48 h ([1]; 10 μg/ml CDDP, 48 h): 1.524
- Average SRB 72 h ([1]; 10 μg/ml CDDP, 72 h): 0.922
- Average SRB 24 h ([1]; 100 μg/ml CDDP): 1.085
- Average SRB 48 h ([1]; 100 μg/ml CDDP, 48 h): 1.452
- Average SRB 72 h ([1]; 100 μg/ml CDDP, 72 h): 1.114
- ABSORBANCE ([1]; 48 h): 1.975
- ABSORBANCE ([1]; 72 h): 2.145
- SRB Average ([1]; Run 2, 24 h, 0.1 μg/ml CDDP): 1.709
- SRB Average ([1]; Run 2, 24 h, 1 μg/ml CDDP): 1.61
- SRB Average ([1]; Run 2, 24 h, 10 μg/ml CDDP): 1.523
- SRB Average ([1]; Run 2, 24 h, 100 μg/ml CDDP): 1.354
- SRB Average ([1]; Run 2, 48 h, 0.1 μg/ml CDDP): 1.975
- SRB Average ([1]; Run 2, 48 h, 1 μg/ml CDDP): 1.253
- SRB Average ([1]; Run 2, 48 h, 10 μg/ml CDDP): 1.27
- SRB Average ([1]; Run 2, 48 h, 100 μg/ml CDDP): 1.256
- SRB Average ([1]; Run 2, 72 h, 0.1 μg/ml CDDP): 2.145
- SRB Average ([1]; Run 2, 72 h, 1 μg/ml CDDP): 1.256
- SRB Average ([1]; Run 2, 72 h, 10 μg/ml CDDP): 1.524
- SRB Average ([1]; Run 2, 72 h, 100 μg/ml CDDP): 1.312
- SRB Average ([1]; Run 3, 24 h, 0.1 μg/ml CDDP): 1.99
- SRB Average ([1]; Run 3, 24 h, 1 μg/ml CDDP): 1.839
- SRB Average ([1]; Run 3, 24 h, 10 μg/ml CDDP): 1.527
- SRB Average ([1]; Run 3, 24 h, 100 μg/ml CDDP): 1.387
- SRB Average ([1]; Run 3, 48 h, 0.1 μg/ml CDDP): 1.978
- SRB Average ([1]; Run 3, 48 h, 1 μg/ml CDDP): 1.092
- SRB Average ([1]; Run 3, 48 h, 10 μg/ml CDDP): 1.259
- SRB Average ([1]; Run 3, 48 h, 100 μg/ml CDDP): 1.218
- SRB Average ([1]; Run 3, 72 h, 0.1 μg/ml CDDP): 1.946
- SRB Average ([1]; Run 3, 72 h, 1 μg/ml CDDP): 1.249
- SRB Average ([1]; Run 3, 72 h, 10 μg/ml CDDP): 1.014
- SRB Average ([1]; Run 3, 72 h, 100 μg/ml CDDP): 1.033
- SRB 24 h Average ([2]; 22Rv1 Run 1, 0.1 μg/ml CDDP): 1.847
- SRB 48 h Average ([2]; 22Rv1 Run 1, 0.1 μg/ml CDDP): 1.685
- SRB 72 h Average ([2]; 22Rv1 Run 1, 0.1 μg/ml CDDP): 2.018
- SRB 24 h Average ([2]; 22Rv1 Run 1, 1 μg/ml CDDP): 1.943
- SRB 48 h Average ([2]; 22Rv1 Run 1, 1 μg/ml CDDP): 1.549
- SRB 72 h Average ([2]; 22Rv1 Run 1, 1 μg/ml CDDP): 1.56
- SRB 24 h Average ([2]; 22Rv1 Run 1, 10 μg/ml CDDP): 1.744
- SRB 48 h Average ([2]; 22Rv1 Run 1, 10 μg/ml CDDP): 1.217
- SRB 72 h Average ([2]; 22Rv1 Run 1, 10 μg/ml CDDP): 1.141
- SRB 24 h Average ([2]; 22Rv1 Run 1, 100 μg/ml CDDP): 1.878
- SRB 48 h Average ([2]; 22Rv1 Run 1, 100 μg/ml CDDP): 1.121
- SRB 72 h Average ([2]; 22Rv1 Run 1, 100 μg/ml CDDP): 1.204
- SRB 24 h Average ([2]; 22Rv1 Run 2, 0.1 μg/ml CDDP): 1.727
- SRB 48 h Average ([2]; 22Rv1 Run 2, 0.1 μg/ml CDDP): 2.139
- SRB 72 h Average ([2]; 22Rv1 Run 2, 0.1 μg/ml CDDP): 2.392
- SRB 24 h Average ([2]; 22Rv1 Run 2, 1 μg/ml CDDP): 1.647
- SRB 48 h Average ([2]; 22Rv1 Run 2, 1 μg/ml CDDP): 1.824
- SRB 72 h Average ([2]; 22Rv1 Run 2, 1 μg/ml CDDP): 1.395
- SRB 24 h Average ([2]; 22Rv1 Run 2, 10 μg/ml CDDP): 1.49
- SRB 48 h Average ([2]; 22Rv1 Run 2, 10 μg/ml CDDP): 1.46
- SRB 72 h Average ([2]; 22Rv1 Run 2, 10 μg/ml CDDP): 1.606
- SRB 24 h Average ([2]; 22Rv1 Run 2, 100 μg/ml CDDP): 1.495
- SRB 48 h Average ([2]; 22Rv1 Run 2, 100 μg/ml CDDP): 1.621
- SRB 72 h Average ([2]; 22Rv1 Run 2, 100 μg/ml CDDP): 1.247
- Average absorbance, SRB 24 h ([2]; 22Rv1 Run 3, 0.1 μg/ml CDDP): 1.352 and 0.85
- MTT 24 h Average ([3]; Run 1, 0.1 μg/ml CDDP): 0.019
- MTT 48 h Average ([3]; Run 1, 0.1 μg/ml CDDP): 0.002
- MTT 72 h Average ([3]; Run 1, 0.1 μg/ml CDDP): 0.04
- MTT 24 h Average ([3]; Run 1, 1 μg/ml CDDP): 0.007
- MTT 48 h Average ([3]; Run 1, 1 μg/ml CDDP): 0.004
- MTT 72 h Average ([3]; Run 1, 1 μg/ml CDDP): 0.006
- MTT 24 h Average ([3]; Run 1, 10 μg/ml CDDP): 0.015
- MTT 48 h Average ([3]; Run 1, 10 μg/ml CDDP): 0.007
- MTT 72 h Average ([3]; Run 1, 10 μg/ml CDDP): 0.015
- MTT 24 h Average ([3]; Run 1, 100 μg/ml CDDP): 0.008
- MTT 48 h Average ([3]; Run 1, 100 μg/ml CDDP): 0.008
- MTT 72 h Average ([3]; Run 1, 100 μg/ml CDDP): 0.006
- MTT 24 h Average ([3]; Run 2, 0.1 μg/ml CDDP): 0.044
- MTT 48 h Average ([3]; Run 2, 0.1 μg/ml CDDP): 0.063
- MTT 72 h Average ([3]; Run 2, 0.1 μg/ml CDDP): 0.106
- MTT 24 h Average ([3]; Run 2, 1 μg/ml CDDP): 0.009
- MTT 48 h Average ([3]; Run 2, 1 μg/ml CDDP): 0.007
- MTT 72 h Average ([3]; Run 2, 1 μg/ml CDDP): 0.005
- MTT 24 h Average ([3]; Run 2, 10 μg/ml CDDP): 0.039
- MTT 48 h Average ([3]; Run 2, 10 μg/ml CDDP): 0.049
- MTT 72 h Average ([3]; Run 2, 10 μg/ml CDDP): 0.07
- MTT 24 h Average ([3]; Run 2, 100 μg/ml CDDP): 0.008
- MTT 48 h Average ([3]; Run 2, 100 μg/ml CDDP): 0.006
- MTT 72 h Average ([3]; Run 2, 100 μg/ml CDDP): 0.002
- MTT 24 h ([3]; 0.1 μg/ml CDDP): 0.083
- MTT 48 h ([3]; 0.1 μg/ml CDDP): 0.035
- MTT 72 h ([3]; 0.1 μg/ml CDDP): 0.046
- MTT 24 h ([3]; 1 μg/ml CDDP): 0.013
- MTT 48 h ([3]; 1 μg/ml CDDP): 0.008
- MTT 72 h ([3]; 1 μg/ml CDDP): 0.008
- MTT 24 h ([3]; 10 μg/ml CDDP): 0.046
- MTT 48 h ([3]; 10 μg/ml CDDP): 0.057
- MTT 72 h ([3]; 10 μg/ml CDDP): 0.068
- MTT 24 h ([3]; 100 μg/ml CDDP): 0.012
- MTT 48 h ([3]; 100 μg/ml CDDP): 0.012
- MTT 72 h ([3]; 100 μg/ml CDDP): 0.01
